US7371746B2, “1,2,4-Thiadiazole compounds and pests controlling composition containing the same” (Sumitomo Chemical Company Limited, priority 2003, dated 2008)

What follows are molecules tested on Aphis gossypii (cotton aphid) (assay: Test Example 1: spray test on cucumber plants infested with cotton aphid). Details: 144 h, 500 ppm active ingredient, spray liquid 20 ml/cup on cucumber plant, sixth day after the application.
Format: in vivo
Procedure: The formulation of each of the present compounds (3), (4), (5), (6), (7), (8), (9), (10), (11), (14), (15a), (15b), (16a), (17a), (17b), (18a), (18b), (19), (20), (21) and (22) according to Formulation Example 5 was diluted with water so that the active ingredient concentration came to 500 ppm to prepare a spray liquid. The seeds of cucumber were planted in a polyethylene cup and it was grown until the first true leaf was developed. On the plant about twenty Aphis gossypii (cotton aphid) are allowed to be parasitic. On the next day, the above spray liquid was applied at a ratio of 20 ml/cup to the cucumber plant. On the sixth day after the application, the number of Aphis gossypii was examined, and the control value was determined by the following formula: Control value (%)={1−(Cb×Tai)/(Cai×Tb)}×100 wherein the variables in the formula have the following meanings: Cb: the number of insects before the treatment in the non-treated area; Cai: the number of insects at the time of observation in the non-treated area; Tb: the number of insects before the treatment in the treated area; and Tai: the number of insects at the time of observation in the treated area.

Question: `CCC#CCOc1nsc(N2CCOCC2)n1` [present compound (10), 3-(2-pentynyloxy)-5-morpholino-1,2,4-thiadiazole] was tested. Which pest or weed control at 500 ppm did it give?
Answer: ≥ 90%

Question: For `CCC#CCOc1nsc(N2CCCC(C)C2)n1` (stereo not drawn) [present compound (8), 3-(2-pentynyloxy)-5-(3-methylpiperidino)-1,2,4-thiadiazole], which pest or weed control at 500 ppm is on record?
Answer: ≥ 90%

Question: `CCC#CCOc1nsc(N2CCCCC2)n1` [present compound (4), 3-(2-pentynyloxy)-5-piperidino-1,2,4-thiadiazole] was tested. Which pest or weed control at 500 ppm did it give?
Answer: ≥ 90%

Question: For `CC#CCOc1nsc(N2CC(C)OC(C)C2)n1` (stereo not drawn) [present compound (17a), 3-(2-butynyloxy)-5-(2,6-dimethylmorpholino)-1,2,4-thiadiazole], which pest or weed control at 500 ppm is on record?
Answer: ≥ 90%

Question: Which pest or weed control at 500 ppm does the source give for `CC#CCOc1nsc(N2CCOCC2)n1` [present compound (9), 3-(2-butynyloxy)-5-morpholino-1,2,4-thiadiazole] here?
Answer: ≥ 90%

Question: How did the pest or weed control at 500 ppm turn out when `C#CCOc1nsc(N2CC(C)CC(C)C2)n1` (stereo not drawn) [present compound (20), 3-(2-propynyloxy)-5-(3,5-dimethylpiperidino)-1,2,4-thiadiazole] was run?
Answer: ≥ 90%

Question: For `CC#CCOc1nsc(N2CCCC(C(F)(F)F)C2)n1` (stereo not drawn) [present compound (22), 3-(2-butynyloxy)-5-(3-trifluoromethylpiperidino)-1,2,4-thiadiazole], which pest or weed control at 500 ppm is on record?
Answer: ≥ 90%

Question: How did the pest or weed control at 500 ppm turn out when `CC#CCOc1nsc(N2CCCCC2C)n1` (stereo not drawn) [present compound (5), 3-(2-butynyloxy)-5-(2-methylpiperidino)-1,2,4-thiadiazole] was run?
Answer: ≥ 90%

Question: `CCC#CCOc1nsc(N2CC(C)OC(C)C2)n1` (stereo not drawn) [present compound (18a), 3-(2-pentynyloxy)-5-(2,6-dimethylmorpholino)-1,2,4-thiadiazole] was tested. Which pest or weed control at 500 ppm did it give?
Answer: ≥ 90%

Question: How did the pest or weed control at 500 ppm turn out when `CC#CCOc1nsc(N2CCCC(C)C2)n1` (stereo not drawn) [present compound (7), 3-(2-butynyloxy)-5-(3-methylpiperidino)-1,2,4-thiadiazole] was run?
Answer: ≥ 90%

Question: With `CC#CCOc1nsc(N2CCCCC2)n1` [present compound (3), 3-(2-butynyloxy)-5-piperidino-1,2,4-thiadiazole] as the molecule, how does the pest or weed control at 500 ppm read?
Answer: ≥ 90%

Question: How did the pest or weed control at 500 ppm turn out when `CC#CCOc1nsc(N2CCC(C)CC2)n1` [present compound (11), 3-(2-butynyloxy)-5-(4-methylpiperidino)-1,2,4-thiadiazole] was run?
Answer: ≥ 90%

Question: `CC#CCOc1nsc(N2CC(CC)CC(CC)C2)n1` (stereo not drawn) [present compound (19), 3-(2-butynyloxy)-5-(3,5-diethylpiperidino)-1,2,4-thiadiazole] was tested. Which pest or weed control at 500 ppm did it give?
Answer: ≥ 90%

Question: How did the pest or weed control at 500 ppm turn out when `CCC#CCOc1nsc(N2CCCCC2C)n1` (stereo not drawn) [present compound (6), 3-(2-pentynyloxy)-5-(2-methylpiperidino)-1,2,4-thiadiazole] was run?
Answer: ≥ 90%

Question: For `CC#CCOc1nsc(N2CC(C)CC(C)C2)n1` (stereo not drawn) [present compound (15a), 3-(2-butynyloxy)-5-(3,5-dimethylpiperidino)-1,2,4-thiadiazole], which pest or weed control at 500 ppm is on record?
Answer: ≥ 90%

Question: With `CCC#CCOc1nsc(N2CC(C)CC(C)C2)n1` (stereo not drawn) [present compound (16a), 3-(2-pentynyloxy)-5-(3,5-dimethylpiperidino)-1,2,4-thiadiazole] as the molecule, how does the pest or weed control at 500 ppm read?
Answer: ≥ 90%

Question: For `CCC#CCOc1nsc(N2CCCCCC2)n1` [present compound (14), 3-(2-pentynyloxy)-5-hexamethyleneimino-1,2,4-thiadiazole], which pest or weed control at 500 ppm is on record?
Answer: ≥ 90%

Question: Which pest or weed control at 500 ppm does the source give for `CC#CC(C)Oc1nsc(N2CC(C)CC(C)C2)n1` (stereo not drawn) [present compound (21), 3-(1-methyl-2-butynyloxy)-5-(3,5-dimethylpiperidino)-1,2,4-thiadiazole] here?
Answer: ≥ 90%
